Assay results reported in patent US12628856B2, “Nutritional composition having lipophilic compounds with improved solubility and bioavailability” (Abbott Laboratories, priority 2013, dated 2026).

Legend:
Assay type in all cases: physicochemical
[1] = Bound lipophile index (SEC peak area ratio 280 nm/214 nm); conditions: Example 35 model systems
Protocol: The size exclusion chromatography (SEC) system used in the following Examples is as follows: Column: Superdex Peptide 10/300 GL, GE Healthcare P/N 17-5176-01; Mobile Phase: 700 mL Milli-Q Plus water, 300 mL acetonitrile; 1.0 mL trifluoroacetic acid; Flow Rate: 0.4 mL/minute; Temperature: ambient (˜21° C.); Detection: UV light at 214 nm, 280 nm; visible light at 476 nm; Injection: 10 μL; Run Time: 70 minutes; Sample Preparation: dilute 0.6-1.1 g to 10 mL with Mobile Phase; Calibration: by 6 purified reference proteins, 14.2-160 kD.
The bound lipophile index is determined as follows: a non-specific indicator of lipophilic nutrients (including lutein and any combination of other oil soluble vitamins) in the high MW protein peak (described above). […]
A study was conducted to evaluate the effect of relative centrifugal force (RCF) on analyzing the high molecular weight lutein assembly in the aqueous phase. […] The compositions were then assessed for high molecular weight lutein assembly and the presence of protein >137 kD as done above, as well as bound lipophile index. Bound lipophile index, a relative marker for of lipophilic nutrients in the high molecular weight assembly, was determined as the peak ratio, 280 nm/214 nm for protein >137 kD.

[2] = Distribution of lutein and MDG in cream, aqueous and pellet layers after 100,000×g (Example 58); conditions: 100,000×g for 1 hour; wt % of the nutritional composition
Protocol: A study was conducted to investigate the distribution of lutein and MDG within the nutritional compositions. Sample were prepared using homogenization at 150/20 bar, and then centrifuged at 100,000×g for 1 hour. The different layers (e.g., cream, aqueous, and pellet) were then analyzed for the presence of lutein and MDG.

[3] = Centrifugation/ultrafiltration analysis of lutein and MDG distribution (Example 60); conditions: centrifugation at 100,000×g
Protocol: A study was conducted to further investigate the distribution of lutein and MDG within the nutritional composition. Samples included MDG/lutein/water; MDG/lutein/NFDM/water; MDG/lutein/WPC/water; and MDG/water.
The premixes were provided as follows: in samples that contained lutein, lutein was heated for 2 h at 50° C. with shaking. […] In samples that contained protein, non-fat dried milk was added to water (50-60° C.) with agitation and allowed to hydrate for approximately 10 min.
The samples were prepared as follows: for solution 1, water was heated to 50-60° C., an lutein in GMO-40 blend and turrax (30 sec 10000 rpm) was added; for solution 2, NFDM was placed in water solution heated to 50-60° C., and lutein was added in GMO-40 blend and turrax (30 sec 10000 rpm); for solution 3, water was heated to 50-60° C., and GMO-40 blend and turrax (30 sec 10000 rpm) was added. The solutions are listed in the table below as X.1, wherein 1 is the solution.
Samples were formulated as detailed above, and then characterized by ultrafiltration with various membranes, as well as ultracentrifuged at various times and speed (e.g., 100,000×g, 4,500×g, and 1,000×g). The details of the different centrifugation/filtration method are listed below. […]

Row | Structure (SMILES) | bound lipophile index when choline was present [1] | present in the aqueous phase following centrifugation [2] | lutein in the aqueous phase ([3]; samples containing only lutein and MDG) | lutein in the aqueous phase ([3]; samples containing protein)
1 | C[N+](C)(C)CCO [choline] | decreased | – | – | –
2 | CC1=C[C@H](O)CC(C)(C)[C@H]1/C=C/C(C)=C/C=C/C(C)=C/C=C/C=C(C)/C=C/C=C(C)/C=C/C1=C(C)C[C@@H](O)CC1(C)C [lutein] | – | approximately 4 wt % | negligible | only found in the aqueous phase of samples containing protein
